From patent EP4063856A1, “METHODS AND COMPOSITIONS FOR IN VITRO SCREENING OF PROTEASE INHIBITORS” (Universiteit Antwerpen, priority 2021, dated 2022)
Where a name gives a salt, the structure may show the parent alone.

Columns and labels:
[1] = molecular target: T1, TMPRSS2 in prostasomes (Homo sapiens, UniProt O15393); assay: Inhibitor screening assay with intact prostasomes (trypsin-like activity, Boc-QAR-AMC substrate, fluorescence); assay type: biochemical; settings: 15 minutes of incubation at 37°C, 30 µM Boc-QAR-AMC, read-out: Inhibitory effect (%): percentage of inhibited trypsin-like activity
T1 construct: Prostasomes or extracellular vesicles were isolated from semen samples using ultracentrifugation and size-exclusion chromatography; from tissue; host or cells: prostasomes (extracellular vesicles) from pooled semen samples
Description: Trypsin-like activity in the intact prostasomes was determined using 100 µM Boc-QAR-AMC (Bachem) in 50 mM Tris 120 mM NaCl pH 8,0. Fluorescence was measured kinetically at 37°C for 20 minutes on a Tecan F200 multi-plate reader at an excitation and emission wavelength of 380 nm and 465 nm, respectively.
On the one hand, intact prostasomes and on the other hand, medium containing recombinant TMPRSS2 (rTMPRSS2) were used. The prostasome suspension and rTMPRSS2 were diluted so that less than 10% substrate conversion was observed after 30 minutes of measurement and trypsin-like activities of both preparations were similar (approximately 0.025 U/L). The inhibitors were added to the samples in concentrations of 10 µM, 1 µM and 100 nM, followed by 15 minutes of incubation at 37°C. The substrate, Boc-QAR-AMC (Bachem), was added in a final concentration of 30 µM. […] Fluorescence was measured kinetically at 37°C for 20 minutes on a Tecan F200 multi-plate reader at an excitation and emission wavelength of 380 nm and 465 nm, respectively. The inhibitory effect was calculated by dividing the trypsin-like activity without inhibitor by the activity with inhibitor and was expressed as percentage inhibition.

[2] = molecular target: T2, recombinant TMPRSS2 (rTMPRSS2) (Homo sapiens, UniProt O15393); assay: Inhibitor screening assay with medium containing recombinant TMPRSS2 (trypsin-like activity, Boc-QAR-AMC substrate, fluorescence); assay type: biochemical; settings: 15 minutes of incubation at 37°C, 30 µM Boc-QAR-AMC, read-out: Inhibitory effect (%): percentage of inhibited trypsin-like activity
T2 construct: The expression vector, encoding the serine protease domain of TMPRSS2, a His-tag and a secretion signal; His-tag; secretion signal; made in house; host or cells: HEK293T cells, transient transfection; unpurified cell medium used
T2 sequence (O15393 256-492 limits assumed): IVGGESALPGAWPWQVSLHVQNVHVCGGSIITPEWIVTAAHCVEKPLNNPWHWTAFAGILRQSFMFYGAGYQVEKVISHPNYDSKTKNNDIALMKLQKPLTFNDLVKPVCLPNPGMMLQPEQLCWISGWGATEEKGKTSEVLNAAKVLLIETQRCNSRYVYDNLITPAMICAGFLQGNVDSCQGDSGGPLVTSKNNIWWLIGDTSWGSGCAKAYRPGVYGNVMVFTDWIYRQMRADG
Description: Cell medium containing the TMPRSS2 serine protease domain was collected 4 days post-transfection and trypsin-like activity was determined as described above.
On the one hand, intact prostasomes and on the other hand, medium containing recombinant TMPRSS2 (rTMPRSS2) were used. The prostasome suspension and rTMPRSS2 were diluted so that less than 10% substrate conversion was observed after 30 minutes of measurement and trypsin-like activities of both preparations were similar (approximately 0.025 U/L). The inhibitors were added to the samples in concentrations of 10 µM, 1 µM and 100 nM, followed by 15 minutes of incubation at 37°C. The substrate, Boc-QAR-AMC (Bachem), was added in a final concentration of 30 µM. This concentration was determined to be the Michaelis-Menten constant for Boc-QAR-AMC and recombinant TMPRSS2. Fluorescence was measured kinetically at 37°C for 20 minutes on a Tecan F200 multi-plate reader at an excitation and emission wavelength of 380 nm and 465 nm, respectively. The inhibitory effect was calculated by dividing the trypsin-like activity without inhibitor by the activity with inhibitor and was expressed as percentage inhibition.

T1 sequence (O15393 256-492 limits assumed): as above
T1 sequence (O15393 1-255 limits assumed): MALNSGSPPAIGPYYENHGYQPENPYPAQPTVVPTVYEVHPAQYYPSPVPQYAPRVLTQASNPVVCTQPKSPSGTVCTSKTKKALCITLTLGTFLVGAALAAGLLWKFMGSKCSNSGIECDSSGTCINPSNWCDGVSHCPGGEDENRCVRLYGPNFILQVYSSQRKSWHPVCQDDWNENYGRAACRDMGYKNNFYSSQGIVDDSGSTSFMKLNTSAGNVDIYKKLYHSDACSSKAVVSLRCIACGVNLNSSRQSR

inhibition at 0.1 µM ([1]; 100 nM inhibitor): 99% | inhibition at 1 µM ([1]; 1 µM inhibitor): 100% | inhibition at 10 µM ([1]; 10 µM inhibitor): 100% | inhibition at 0.1 µM ([2]; 100 nM inhibitor): 73% | inhibition at 1 µM ([2]; 1 µM inhibitor): 88% | inhibition at 10 µM ([2]; 10 µM inhibitor): 100%
SMILES: CN(C)C(=O)COC(=O)Cc1ccc(OC(=O)c2ccc(NC(=N)N)cc2)cc1 [Camostat, camostat mesylate]
